The text below walks through data of patent US8609836B2, “4-aryl-2-anilino-pyrimidines” (Janssen Pharmaceutica NV, priority 2008, dated 2013).

The structures appear in SMILES notation.

Type in all cases: biochemical
The target in one assay is PLK4 (h) (Homo sapiens, UniProt O00444). The assay is described as follows: PLK-4 human kinase inhibition, scintillation proximity assay (SPA). To be noted: read-out: PLK4 pIC50 (converted). A general note: Scintillation proximity formats need no separation of bound from free tracer.
A further assay deals with AuroraB (h) (Homo sapiens, UniProt Q96GD4). The assay is described as follows: Aurora-B human kinase inhibition, SPA. To be noted: read-out: AuroraB pIC50 (converted). The method in brief:
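AuroraB (0.5 μg/ml) phosphorylates 3 μM biotin-peptide using 0.5 μM ATP spiked with 33P-ATP in Hepes pH 7.5 with 3 mM MgCl2 and MnCl2, for 60 min at room temperature. EDTA stop solution carries streptavidin scintillant beads, and the captured radiolabel is imaged.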

The target of the next assay is PLK1 T210D (h) (Homo sapiens, UniProt P53350, T210D). The assay can be described thus: PLK1 human kinase inhibition, SPA. To be noted: read-out: PLK1 pIC50 (converted). In outline: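 Kinase incubated 40 min at room temperature with 0.1 μM ATP (2 nM [γ-33P]ATP tracer), 2 μM biotinylated peptide, pH 8.0 Hepes buffer with 2 mM MnCl2 and 1 mM DTT; enzyme at 0.125 ng/ml. Stopped with EDTA; 33P-peptide bound to streptavidin scintillant beads and imaged.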
PLK1 T210D (h), sequence (P53350 whole entry T210D): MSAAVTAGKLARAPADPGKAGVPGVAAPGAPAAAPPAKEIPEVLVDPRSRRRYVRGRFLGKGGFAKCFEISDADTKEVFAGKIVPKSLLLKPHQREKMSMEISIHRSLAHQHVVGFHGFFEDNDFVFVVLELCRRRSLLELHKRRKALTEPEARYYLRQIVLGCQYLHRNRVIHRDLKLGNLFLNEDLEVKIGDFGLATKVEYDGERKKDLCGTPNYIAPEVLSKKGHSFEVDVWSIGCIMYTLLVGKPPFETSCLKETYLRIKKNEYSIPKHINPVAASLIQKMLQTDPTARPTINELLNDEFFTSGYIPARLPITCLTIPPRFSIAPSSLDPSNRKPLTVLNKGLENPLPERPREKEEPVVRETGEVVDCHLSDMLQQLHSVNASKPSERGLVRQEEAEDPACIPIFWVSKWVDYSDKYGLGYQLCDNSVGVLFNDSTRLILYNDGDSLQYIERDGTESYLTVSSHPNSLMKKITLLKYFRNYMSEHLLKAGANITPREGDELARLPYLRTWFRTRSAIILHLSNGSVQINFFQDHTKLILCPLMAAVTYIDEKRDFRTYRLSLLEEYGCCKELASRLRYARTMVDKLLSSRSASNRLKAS

AuroraB (h), sequence (Q96GD4 whole entry): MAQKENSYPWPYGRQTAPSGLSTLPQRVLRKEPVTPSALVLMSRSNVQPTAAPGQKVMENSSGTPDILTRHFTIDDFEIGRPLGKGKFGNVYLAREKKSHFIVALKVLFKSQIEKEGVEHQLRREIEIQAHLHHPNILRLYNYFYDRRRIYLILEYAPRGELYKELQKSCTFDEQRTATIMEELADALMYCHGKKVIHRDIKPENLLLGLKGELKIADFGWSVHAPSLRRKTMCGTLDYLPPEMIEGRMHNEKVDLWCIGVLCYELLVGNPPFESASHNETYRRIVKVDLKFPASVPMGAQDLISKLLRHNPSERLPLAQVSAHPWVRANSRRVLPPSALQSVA
PLK4 (h), sequence (O00444 whole entry): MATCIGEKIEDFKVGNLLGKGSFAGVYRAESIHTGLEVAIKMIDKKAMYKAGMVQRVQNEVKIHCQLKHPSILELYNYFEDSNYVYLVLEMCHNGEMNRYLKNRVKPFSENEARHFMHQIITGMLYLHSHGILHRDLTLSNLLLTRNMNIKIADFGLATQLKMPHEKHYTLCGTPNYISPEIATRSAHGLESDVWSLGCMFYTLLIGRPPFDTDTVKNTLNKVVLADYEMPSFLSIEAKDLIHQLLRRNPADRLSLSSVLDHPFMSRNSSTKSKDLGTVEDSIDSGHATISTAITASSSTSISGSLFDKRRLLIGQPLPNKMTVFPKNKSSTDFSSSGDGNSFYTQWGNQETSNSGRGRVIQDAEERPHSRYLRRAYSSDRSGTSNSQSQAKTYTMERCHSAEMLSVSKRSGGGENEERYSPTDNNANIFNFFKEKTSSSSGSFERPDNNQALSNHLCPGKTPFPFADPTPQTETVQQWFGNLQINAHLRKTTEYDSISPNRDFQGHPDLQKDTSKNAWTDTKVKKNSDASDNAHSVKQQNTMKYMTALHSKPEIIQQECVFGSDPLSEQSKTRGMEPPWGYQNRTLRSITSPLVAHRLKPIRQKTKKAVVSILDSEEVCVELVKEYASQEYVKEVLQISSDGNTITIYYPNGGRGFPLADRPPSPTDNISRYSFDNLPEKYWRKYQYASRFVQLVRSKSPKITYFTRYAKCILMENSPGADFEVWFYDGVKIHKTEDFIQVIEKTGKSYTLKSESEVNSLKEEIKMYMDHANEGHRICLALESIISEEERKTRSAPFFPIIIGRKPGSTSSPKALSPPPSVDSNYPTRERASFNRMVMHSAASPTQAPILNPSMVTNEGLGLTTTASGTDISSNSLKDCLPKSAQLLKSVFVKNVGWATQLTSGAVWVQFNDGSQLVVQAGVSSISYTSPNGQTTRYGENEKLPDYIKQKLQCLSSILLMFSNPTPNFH

In the case of `O=C1NCc2cccc(c2)-c2ccnc(n2)Nc2ccc(cc2)CN[C@H]1Cc1ccccc1` [Compound 192], the IC50 on PLK4 (h), at AuroraB (h) and on PLK1 T210D (h) was above 10 µM in each case.

Regarding `O=C1NCc2cccc(c2)-c2ccnc(n2)Nc2cc(cc(C(=O)N3CCOCC3)c2)CN2CCC[C@@H]12` [Compound 32], the IC50 is 0.178 µM on PLK4 (h), above 10 µM on AuroraB (h) and above 10 µM at PLK1 T210D (h).

For `O=C1NCc2cccc(c2)-c2ccnc(n2)Nc2cc(ccc2Cl)CN[C@H]1Cc1ccccc1` [Compound 189], the IC50 at PLK4 (h), at AuroraB (h) and on PLK1 T210D (h) was above 10 µM each time.

As for `O=C1NCc2cccc(c2)-c2ccnc(n2)Nc2ccc(C(=O)N3CCOCC3)c(c2)CN2CCC[C@@H]12` [Compound 26], the IC50 on PLK4 (h) is 0.0977 µM; at AuroraB (h) it was above 10 µM; at PLK1 T210D (h) it was above 10 µM.

Turning to `O=C1CN2CCN(CC2)Cc2cc(ccc2N2CCOCC2)Nc2nccc(n2)-c2cccc(c2)CN1` [Compound 20], the IC50 at PLK4 (h) is 5.25 µM; on AuroraB (h) it was above 10 µM; on PLK1 T210D (h), above 10 µM.

Consider `COc1ccc2cc1CN[C@@H](CO)C(=O)N(C)CCCN(C)c1ccc(cn1)-c1ccnc(n1)N2` [Compound 11], for which the IC50 at PLK4 (h) was 0.933 µM; on AuroraB (h), above 10 µM; on PLK1 T210D (h), above 10 µM.

Turning to `O=C1NCc2cccc(c2)-c2ccnc(n2)Nc2cccc(c2)CN[C@H]1Cc1ccccc1` [Compound 185], the results for the IC50 at PLK4 (h), at AuroraB (h) and at PLK1 T210D (h) were 0.794 µM, above 10 µM and above 10 µM, respectively.

In the case of `COc1cc2cc(c1)Nc1nccc(n1)-c1ccc(cc1)CN(C)CCCNC(=O)[C@@H]1CCCN1C2` [Compound 156], the IC50 on PLK4 (h) is 0.912 µM; at AuroraB (h), above 10 µM; on PLK1 T210D (h), above 10 µM.

With `COc1ccc2cc1CN(C)CCCNC(=O)[C@@H]1CCCN1Cc1cc(NCCc3ccccc3)cc(c1)Nc1nccc-2n1` [Compound 167], the IC50 at PLK4 (h) is 3.55 µM; at AuroraB (h), above 10 µM; at PLK1 T210D (h) it was above 10 µM.

For `O=C1NCc2cccc(c2)-c2ccnc(n2)Nc2ccc(N3CCOCC3)c(c2)CN2C[C@@H](O)C[C@@H]12` [Compound 27], the IC50 was 0.11 µM on PLK4 (h), above 10 µM at AuroraB (h) and above 10 µM at PLK1 T210D (h).

For `CN(C)CCNC(=O)c1cc2cc(c1)Nc1nccc(n1)-c1cccc(c1)CNC(=O)[C@@H]1CCCN1C2` [Compound 39], the IC50 at PLK4 (h) was 0.282 µM; on AuroraB (h), above 10 µM; at PLK1 T210D (h), above 10 µM.

As to `COc1cc2cc(c1)Nc1nccc(n1)-c1ccc(cc1)CN(C)CCCNC(=O)C1CCN(CC1)C2` [Compound 66], the IC50 on PLK4 (h) was 1.35 µM; at AuroraB (h) it was above 10 µM; on PLK1 T210D (h), above 10 µM.

On to `CN1CCN(C(=O)c2cc3cc(c2)Nc2nccc(n2)-c2cccc(c2)CNC(=O)[C@@H]2CCCN2C3)CC1` [Compound 34], for which the IC50 was 0.186 µM at PLK4 (h), above 10 µM at AuroraB (h) and above 10 µM on PLK1 T210D (h).

For `O=C1CN2CCN(CC2)Cc2ccc(cc2)Nc2nccc(n2)-c2cccc(c2)CN1` [Compound 193], the IC50 on PLK4 (h), on AuroraB (h) and at PLK1 T210D (h) was above 10 µM throughout.

`CN1CCC(NC(=O)c2cc3cc(c2)Nc2nccc(n2)-c2cccc(c2)CNC(=O)[C@@H]2CCCN2C3)CC1` [Compound 38]: the IC50 at PLK4 (h) is 0.263 µM; on AuroraB (h) it was above 10 µM; at PLK1 T210D (h), above 10 µM.

With `COc1ccc2cc1CN(C)CCNC(=O)[C@H](CO)NCc1cc(Br)cc(c1)Nc1nccc-2n1` [Compound 119], the IC50 is 3.89 µM at PLK4 (h), above 10 µM on AuroraB (h) and above 10 µM on PLK1 T210D (h).

As for `COc1cc2cc(c1)Nc1nccc(n1)-c1ccc(cc1)CN(C)CCNC(=O)[C@H](CO)NC2` [Compound 109], the IC50 on PLK4 (h) is 0.741 µM; on AuroraB (h), 7.41 µM; on PLK1 T210D (h), above 10 µM.

Take `O=C1NCc2ccc(cc2)-c2ccnc(n2)Nc2ccc(N3CCOCC3)c(c2)CN2CCC1CC2` [Compound 12]: the IC50 on PLK4 (h) is 0.49 µM; at AuroraB (h), 2.29 µM; at PLK1 T210D (h), above 10 µM.

Turning to `COc1ccc2cc1CN(C)CCNC(=O)[C@H](CO)NCc1cc(cc(N3CCOCC3)c1)Nc1nccc-2n1` [Compound 105], the IC50 at PLK4 (h) was 0.447 µM; at AuroraB (h), 4.79 µM; at PLK1 T210D (h), above 10 µM.

Consider `O=C1NCCOc2cccc(c2)-c2ccnc(n2)Nc2ccc(N3CCOCC3)c(c2)CN2CCC1CC2` [Compound 94], for which the IC50 on PLK4 (h) is 2.63 µM; on AuroraB (h) it was above 10 µM; at PLK1 T210D (h), above 10 µM.

Regarding `COc1cc2cc(c1)Nc1nccc(n1)-c1ccc(OC)c(c1)CN(C)CCCNC(=O)CN1CCN(CC1)C2` [Compound 140], the figures for the IC50 at PLK4 (h), on AuroraB (h) and at PLK1 T210D (h) were 2.69 µM, above 10 µM and above 10 µM, respectively.

For `O=C1NCc2cc(ccc2N2CCOCC2)Nc2nccc(n2)-c2cccc(c2)CCN2CCC[C@@H]12` [Compound 43], the values for the IC50 at PLK4 (h), on AuroraB (h) and at PLK1 T210D (h) were 0.363 µM, above 10 µM and above 10 µM, respectively.

Regarding `CN1CCNC(=O)[C@H](CO)NCc2cccc(c2)Nc2nccc(n2)-c2ccc(cc2)C1` [Compound 114], the IC50 is 1.2 µM on PLK4 (h), 7.08 µM at AuroraB (h) and above 10 µM at PLK1 T210D (h).

Consider `O=C1NCc2cc(ccc2N2CCOCC2)Nc2nccc(n2)-c2cccc(c2)CN2CCC[C@@H]12` [Compound 15], for which the IC50 at PLK4 (h) is 0.575 µM; at AuroraB (h) it was 2.95 µM; at PLK1 T210D (h), above 10 µM.

With `CN(C)C(=O)c1cc2cc(c1)Nc1nccc(n1)-c1cccc(c1)CNC(=O)[C@@H]1CCCN1C2` [Compound 35], the IC50 was 0.204 µM on PLK4 (h), above 10 µM on AuroraB (h) and above 10 µM at PLK1 T210D (h).

With `O=C1NCc2ccc(cc2)-c2ccnc(n2)Nc2ccc(N3CCOCC3)c(c2)CN2CCC[C@@H]12` [Compound 49], the IC50 at PLK4 (h) was 5.89 µM; on AuroraB (h) it was above 10 µM; on PLK1 T210D (h), above 10 µM.

On to `COc1cc2cc(c1)Nc1nccc(n1)-c1ccc(cc1)CN(C)CCNC(=O)CN1CCN(CC1)C2` [Compound 132], for which the IC50 on PLK4 (h) is 1.41 µM; at AuroraB (h), above 10 µM; at PLK1 T210D (h), above 10 µM.

For the compound `COc1cc2cc(c1)Nc1nccc(n1)-c1ccc(cc1)CN(C)CCNC(=O)[C@@H]1CCCN1C2` [Compound 158], the values for the IC50 at PLK4 (h), on AuroraB (h) and at PLK1 T210D (h) were 1.15 µM, above 10 µM and above 10 µM, respectively.

Regarding `O=C1NCc2cccc(c2)-c2ccnc(n2)Nc2cccc(c2)CN[C@H]1CO` [Compound 187], the IC50 at PLK4 (h) is 1.07 µM; at AuroraB (h), above 10 µM; on PLK1 T210D (h), above 10 µM.

Turning to `O=C1NCCNCc2ccc(cc2)-c2ccnc(n2)Nc2ccc(N3CCOCC3)c(c2)CN2CCC[C@@H]12` [Compound 157], the IC50 is 1.07 µM on PLK4 (h), 9.55 µM at AuroraB (h) and above 10 µM on PLK1 T210D (h).

With `O=C1NCc2cccc(c2)-c2ccnc(n2)Nc2cccc(c2)CN2C[C@@H](O)C[C@@H]12` [Compound 45], the IC50 at PLK4 (h) was 0.417 µM; on AuroraB (h) it was above 10 µM; at PLK1 T210D (h), above 10 µM.

With `COc1ccc2cc1CN(C)CCNC(=O)[C@@H]1CCCN1Cc1cc(C#N)cc(c1)Nc1nccc-2n1` [Compound 181], the IC50 at PLK4 (h), at AuroraB (h) and at PLK1 T210D (h) was above 10 µM throughout.

For `O=C1NCc2cccc(c2)-c2ccnc(n2)Nc2ccccc2CN2CCC[C@@H]12` [Compound 57], the IC50 at PLK4 (h), at AuroraB (h) and on PLK1 T210D (h) was above 10 µM in each case.

`O=C1NCc2cccc(c2)-c2ccnc(n2)Nc2cc(ccc2Cl)CN[C@H]1CO` [Compound 188]: the IC50 at PLK4 (h) was 2.09 µM; on AuroraB (h), above 10 µM; on PLK1 T210D (h), above 10 µM.

For `COCCNC(=O)c1cc2cc(c1)Nc1nccc(n1)-c1cccc(c1)CNC(=O)[C@@H]1CCCN1C2` [Compound 44], the values for the IC50 on PLK4 (h), at AuroraB (h) and on PLK1 T210D (h) were 0.407 µM, above 10 µM and above 10 µM, respectively.

As to `COc1cc2cc(c1)Nc1nccc(n1)-c1ccc(OC)c(c1)CN(C)CCCNC(=O)[C@@H]1CCCN1C2` [Compound 171], the IC50 at PLK4 (h) was 5.01 µM; on AuroraB (h) it was above 10 µM; at PLK1 T210D (h) it was above 10 µM.

In the case of `CC(C)(C)O[C@@H]1C[C@H]2C(=O)NCc3cccc(c3)-c3ccnc(n3)Nc3ccccc3CN2C1` [Compound 58], the IC50 on PLK4 (h), on AuroraB (h) and on PLK1 T210D (h) was above 10 µM in each case.

Regarding `C[C@@H]1NCc2cc(ccc2N2CCOCC2)Nc2nccc(n2)-c2cccc(c2)CNC1=O` [Compound 182], the IC50 was 0.692 µM at PLK4 (h), above 10 µM at AuroraB (h) and above 10 µM at PLK1 T210D (h).

On to `CN1CCN(C)c2ccc(cn2)-c2ccnc(n2)Nc2cc(c3c(c2)OCO3)CN2CCC[C@H]2C1=O` [Compound 168], for which the IC50 on PLK4 (h) is 3.55 µM; on AuroraB (h) it was 2.57 µM; at PLK1 T210D (h) it was above 10 µM.

On to `CN1CCN(C(=O)c2ccc3cc2CN2CCC[C@H]2C(=O)NCc2cccc(c2)-c2ccnc(n2)N3)CC1` [Compound 25], for which the IC50 on PLK4 (h) is 0.0933 µM; on AuroraB (h), above 10 µM; on PLK1 T210D (h) it was above 10 µM.

For `COc1cc2cc(c1)Nc1nccc(n1)-c1ccc(OC)c(c1)CN(C)CCCNC(=O)C1CCN(CC1)C2` [Compound 73], the figures for the IC50 at PLK4 (h), on AuroraB (h) and at PLK1 T210D (h) were 2.57 µM, above 10 µM and above 10 µM, respectively.
